Data published in patent US20050187150A1, “Structure-based design and synthesis of FGF inhibitors and FGF modulator compounds” (New York University, priority 2001, published 2005).

Tests used:
FGF2-FGFR1 complexes [1] = target: T1, FGF2-FGFR1 complexes (Homo sapiens, UniProt P09038+P11362); assay: Size exclusion chromatography of purified 1:1 FGF2:FGFR1 complexes mixed with test compound (dimerization); assay type: binding; conditions: for dimerization of FGF:FGFR complex (peaks in size exclusion chromatogram): compound added at 1:1:1 molar ratio FGF2:FGFR1:compound; for dimerization of FGF:FGFR complex (dimer peak D in size exclusion chromatogram): compound added at molar ratio 1:1:0.25 and 1:1:0.5 FGF2:FGFR1:compound, Superdex 200, 25 mM HEPES-NaOH pH 7.5, 150 mM NaCl
T1 construct: made in house
T1 sequence (P11362 142-365): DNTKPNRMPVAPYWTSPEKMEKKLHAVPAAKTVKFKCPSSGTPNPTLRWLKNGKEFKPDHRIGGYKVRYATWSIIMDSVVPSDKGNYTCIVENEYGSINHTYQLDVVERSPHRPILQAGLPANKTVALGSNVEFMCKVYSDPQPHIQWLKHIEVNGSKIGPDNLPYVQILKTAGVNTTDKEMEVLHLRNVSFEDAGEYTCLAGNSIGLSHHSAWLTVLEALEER
T1 sequence (P09038 134-288): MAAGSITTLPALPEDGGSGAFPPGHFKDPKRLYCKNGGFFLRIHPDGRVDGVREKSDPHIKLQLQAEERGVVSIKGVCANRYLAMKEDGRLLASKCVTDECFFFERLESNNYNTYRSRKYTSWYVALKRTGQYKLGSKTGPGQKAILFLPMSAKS
Description: A construct encoding an extracellular ligand binding portion of the FGFR1 polypeptide set forth in FIG. 1A (SEQ ID NO:1) was expressed in E. coli and refolded […] using established protocols, as previously described by Plotnikov et al. (Cell 2000, 101:413-424). In particular, the soluble FGFR1 polypeptide expressed by this construct, which is referred to here as D23, comprises amino acid residues 142 to 365 of SEQ ID NO:1, which correspond to the immunoglobulin (Ig)-like domains 2 and 3 (D2 and D3, respectively), which are known to confer ligand binding and specificity for the FGFR receptor. However, the D23 polypeptide is missing the Ig-like domain 1 (D1), the acid box and the linker polypeptide sequence between D3 and the transmembrane helix. The D23 polypeptide is therefore similar to a naturally occurring splice variant of FGFR1 that retains full ligand binding capacity (Johnson et al., Mol. Cell. Biol. 1990, 10:4728-4736).
When expressed in E. coli cells, the D23 polypeptide was found entirely in inclusion bodies. The polypeptide was solubilized using standard denaturing reagents and refolded in vitro. Following purification by ion exchange chromatography, the D23 polypeptide was complexed with the FGF2 ligand polypeptide whose amino acid sequence is set forth in FIG. 2A (SEQ ID NO:3) and purified by size exclusion chromatography.
To quantitate dimerization, the purified 1:1 FGF2:FGFR1 complexes were mixed at various molar ratios with SOS and analyzed by size exclusion chromatography according on SUPERDEX 200® (Amersham Pharmacia Biotech.) size exclusion column in 25 mM HEPES-NaOH buffer (pH 7.5) containing 150 mM sodium chloride.
In these experiments, two milligram aliquots of the purified FGF2-FGFR1 complex described, supra, in Example 1 were mixed with suramin and analyzed on a size exclusion column equilibrated with 25 mM HEPES-NaOH buffer (pH 7.5) containing 150 mM NaCl.

[2] = tested on: BaF3 cells that stably expressed wild-type FGFR1; assay: Proliferation of BaF3 cells stably expressing FGFR1 in the presence of FGF2; assay type: cell-based
Description: This example describes experiments that investigated the ability of SOS to modulate FGF ligand-dependent activation of the FGF receptor in vivo. In particular, an assay is described here that uses a BaF3 cell line which overexpresses FGFR1. This cell line has been previously described and is therefore known in the art (see, e.g., Huang et al., J. Biol. Chem. 1995, 270:5065-5072).
(§1) BaF3 cells are a lymphoid cell line, which are dependent on interleukin-3 (IL-3) for growth. […] Accordingly, the growth rate of such transfected cells is useful as a measurement of FGF receptor activity in vivo. Because BaF3 cells express only low amounts of HSPG, soluble heparin must also be present to elicit the FGF-dependent mitogenic response observed in the transfected cells.
For the experiments discussed here, BaF3 cells that stably expressed wild-type FGFR1 (SEQ ID NO:1) were cultured according to standard methods that have been previously described (see, Huang et al., supra). 1×10^4 cells were seeded in triplicate wells and grown in the presence of heparin (3 μM) or, alternatively, in the presence of various concentrations (0.1, 0.5, 1, 5 and 10 μM, respectively) of SOS. The numbers of viable cells in each well were counted daily in duplicate.
Paradoxically, however, FGFR dimers promoted by suramin are signaling incompetent. That is to say, the FGF receptor is not activated in these dimers. […]

FGF2-FGFR1 complexes [3] = target: T1, FGF2-FGFR1 complexes; assay: X-ray crystallography of the dimeric FGF2-FGFR1-SOS ternary complex
Procedure: This example describes x-ray crystallography experiments that better characterize the molecular mechanisms by which SOS may interact with and/or stabilize dimers of FGF-FGFR complexes. In particular, this example describes the crystalization of FGF2-FGFR1 complexes with SOS and the solution of that crystal structure by analyzing x-ray diffraction data.
Crystals of dimeric FGF2-FGFR1-SOS complexes were grown by vapor diffusion at 20° C. using the hanging drop method. 2 μL of protein solution (10 mg/mL in 25 mM HEPES-NaOH (pH 7.5) and 150 mM NaCl) was mixed with an equal volume of crystallization buffer (12-16% Polyethylene glycol 5000, 0.2 M ammonium sulfate and 15% glycerol in 0.1 M HEPES-NaOH (pH 7.5)). The protein solution contained a 1:1:1 stoichiometric ratio of FGF2, and soluble FGFR1 construct described, supra, in Example 1, and SOS.
The crystal belongs to the orthorhombic space group P21 21 21 and has unit cell dimensions of a=64.2 Å, b=122.4 Å and c=219.5 Å. The crystal contains four FGF2-FGFR1-SOS complexes in the asymmetric unit with a solvent content of about 56%.
Diffraction data were collected from a flash-frozen crystal on a CCD detector at beamline X4A at the National Synchrotron Light Source, Brookhaven National Laboratory. The data were processed using DENZO and SCALEPACK (Otwinowski & Minor, Methods Enzymol. 1997, 276:307-326). […]

FGFR1 = assay: FGF receptor autophosphorylation in BaF3 cells over-expressing FGFR (anti-FGFR1 immunoprecipitation, phosphotyrosine immunoblot); assay type: cell-based; conditions: five minutes stimulation with FGF1 50 ng/ml plus heparin 10 μg/ml or sulfonated cyclodextrin 5 or 25 μM
Procedure: To verify that the effect of sulfonated β-cyclodextrin observed in FIG. 15A is actually due to activation of the FGF receptor, experiments were conducted that examined the capacity of heparin and β-cyclodextrin to stimulate kinase activity of FGF receptor in living cells. See, Mohammadi et al., Science 1997, 276:955-960 for a detailed description of such experiments.
Briefly, BaF3 cells over-expressing FGFR were stimulated for five minutes with FGF1 ligand (50 ng/ml), heparin (10 μg/ml) and/or sulfonated […] 5 or 25 μM). The cells were then lysed. Their proteins were immunoprecipitated with antibodies to FGFR1, separated by SDS-polyacrylamide gel electrophoresis (PAGE), immunoblotted with antibodies to phosphotyrosine, and detected by autoradiography. […] See, the left-hand and right-hand lanes, respectively, in FIG. 15B.

ERK-1 and ERK-2 = assay: ERK-1/ERK-2 phosphorylation in BaF3 cells over-expressing FGFR1 (immunoblot); assay type: cell-based; conditions: co-incubation with FGF1 50 ng/ml; heparin 10 μg/ml or sulfonated β-cyclodextrin 5 and 25 μM
[4] = tested on: BaF3 cells that stably express wild-type FGFR1; assay: Proliferation of BaF3 cells stably expressing FGFR1 in the presence of FGF1; assay type: cell-based; conditions: FGF1 50 ng/ml; sulfonated β-cyclodextrin 1, 5, 10 and 25 μM
Description: This examples describes experiments that investigate the ability of sulfonated β-cyclodextrin to function as an effective heparin agonists. In particular, the cell-based assay described in Example 2, supra, is used here to investigate the ability of sulfonated β-cyclodextrin to modulate FGF ligand-dependent activation of the FGF receptor in vivo.
as §1, with “The assay uses a BaF3 cell line which overexpresses FGFR1. This cell line has been previously described and is known in the art (see, e.g., Huang et al., J. Biol. Chem. 1995, 270:5065-5072). BaF3 cells” for “BaF3 cells”, “in vivo. Ordinarily, because BaF3 cells” for “in vivo. Because BaF3 cells”
For the experiments described here, BaF3 cells that stably express wild-type FGFR1 ([…]) were cultured according to standard methods that have been previously described (see, Huang et al., supra). […] The numbers of viable cells in each well were counted daily in duplicate. […]

Row | Molecule | dimerization of FGF:FGFR complex (peaks in size exclusion chromatogram) (FGF2-FGFR1 complexes [1]) | dimerization of FGF:FGFR complex (dimer peak D in size exclusion chromatogram) (FGF2-FGFR1 complexes [1]) | proliferation of BaF3 cells over expressing FGFR1 (daily viable cell counts) ([2]; FGF2 50 ng/ml, SOS 0.1, 0.5, 1, 5 and 10 μM) | hydrogen bonds of the well ordered SOS molecule with FGF2 and both FGFR1 molecules (FGF2-FGFR1 complexes [3]; crystal structure at 2.6 Å resolution) | effect on FGF-FGFR binding affinity inferred from the crystal structure (FGF2-FGFR1 complexes [3]; interaction mimics heparin) | heparin-like or SOS-like activity (FGF ligand-dependent activation of FGF receptor, BaF3 cell growth) ([2]; BaF3 cells grown with suramin instead of heparin or SOS, contacted with FGF ligand) | autophosphorylation of the FGF receptor (FGFR1) | autophosphorylation of ERK-1 and ERK-2 (ERK-1 and ERK-2) | proliferation of BaF3 cells over expressing FGFR1 (daily viable cell counts) [4]
1 | O=S(=O)(O)OC[C@H]1O[C@@](COS(=O)(=O)O)(O[C@H]2O[C@H](COS(=O)(=O)O)[C@@H](OS(=O)(=O)O)[C@H](OS(=O)(=O)O)[C@H]2OS(=O)(=O)O)[C@@H](OS(=O)(=O)O)[C@@H]1OS(=O)(=O)O [SOS, sucrose octasulfate] | only a peak corresponding to FGF:FGFR dimers is observed | a third peak corresponding to dimers of the FGF:FGFR complex is observed | supports FGF2 in inducing proliferation of the BaF3 cells over expressing FGFR1 in a dose-dependent manner | 13 | increases FGF-FGFR binding affinity | – | – | – | –
2 | Cc1ccc(C(=O)Nc2ccc(S(=O)(=O)O)c3cc(S(=O)(=O)O)cc(S(=O)(=O)O)c23)cc1NC(=O)c1cccc(NC(=O)Nc2cccc(C(=O)Nc3cc(C(=O)Nc4ccc(S(=O)(=O)O)c5cc(S(=O)(=O)O)cc(S(=O)(=O)O)c45)ccc3C)c2)c1 [suramin] | only a peak corresponding to the FGF:FGFR dimers is observed | a third peak corresponding to dimers of the FGF:FGFR complex is observed | – | – | – | no heparin-like or SOS-like activity was observed | – | – | –
3 | heparin | – | – | – | – | – | – | stimulated autophosphorylation of the FGF receptor | induces autophosphorylation of ERK-1 and ERK-2 | –
4 | sulfonated β-cyclodextrin | – | – | – | – | – | – | results in autophosphorylation of the FGF receptor | induces autophosphorylation of ERK-1 and ERK-2 | supports the FGF ligand in inducing proliferation of the BaF3 cells over expressing FGFR1 in a dose-dependent manner
